Values of other authors, collected in patent publication US11040987B2 (TenNor Therapeutics Limited, priority 2019, dated 2021).

Legend:
Acinetobacter baumannii = conditions: including carbapenem-resistant strains; cited from earlier work
Pseudomonas aeruginosa = conditions: including carbapenem-resistant strains; cited from earlier work

Question: For CC(C)(O/N=C(\C(=O)N[C@@H]1C(=O)N2C(C(=O)[O-])=C(C[N+]3(CCNC(=O)c4ccc(O)c(O)c4Cl)CCCC3)CS[C@H]12)c1csc(N)n1)C(=O)O [Cefiderocol], which “antibacterial activity against Acinetobacter baumannii” value (Acinetobacter baumannii) is on record?
Answer: potent antibacterial activity

Question: What about the “antibacterial activity against Pseudomonas aeruginosa” value (Pseudomonas aeruginosa) of the same compound?
Answer: potent antibacterial activity
